Source: patent publication US11214554B2, “Indoleamine 2,3-dioxygenase inhibitor, method for preparation and use thereof” (NANJING HUAWE MEDICINE TECHNOLOGY GROUP CO., LTD., priority 2018, dated 2022)
Like-named read-outs stand apart in the source and are kept apart here. Values belong to the compound of their own block, whether it stands above or below them.

How the values were obtained:
IDO1 enzyme = IDO1 enzyme (Homo sapiens (Human), UniProt P14902); assay: Determination of the IDO1 inhibitory activity of compounds (enzyme assay, absorbance at 480 nm); type: biochemical; conditions: 50 nM IDO1, 37° C., 30 minutes, pH 6.5, 1% DMSO; average of two tests
Method: 100 mM PBS containing 400 μM L-tryptophan, 20 mM ascorbate, 20 μM methylene blue and 1000 U/ml catalase, pH 6.5
All compounds were dissolved with DMSO. During the assay, each compound was diluted to a concentration as needed. The compound of each concentration was added to multi-wells, and the final concentration of DMSO was controlled at 1%.
a.) the reaction mixture was prepared by adding 50 nM IDO1 and the desired concentration of the test compound to 100 μL of IDO1 assay buffer. IDO1 and assay buffer need to be preheated to 37° C.
b.) The mixture was reacted in a constant temperature water tank at 37° C. for 30 minutes.
c.) 50 μL of 30% trichloroacetic acid was added.
d.) The above mixture was reacted in a constant temperature water tank at 52° C. for 30 minutes.
e.) The reaction mixture was centrifuged at 12000 g for 10 minutes at room temperature.
f.) 100 μL of the obtained supernatant and 100 μL of Ehrlich reagent were mixed.
g.) the absorbance at 480 nm was measured using an M5 microplate reader.
4. Data Analysis Inhibition rate=(ODpostive−ODsample)/(ODpositive−ODnegative)*100% 5. Results and Discussion
In this experiment, the inhibitory activity of the test compounds on the IDO1 enzyme was tested. Compounds of each diluted concentration were tested in multi-wells. The final concentration of the reaction system in DMSO was controlled to 1%. The inhibition rate was tested twice, and the average value was taken.

[1] = biological target: IDO protease in highly expressed HeLa cells (Homo sapiens (Human), UniProt P14902); assay: Inhibitory activity of compounds on IDO protease in highly expressed HeLa cells; type: cell-based; conditions: highly expressed HeLa cell line
Method: This method was used to determine the inhibitory effect of the compounds of the invention on the inhibitory activity of IDO protease in highly expressed HeLa cells.
Highly expressed HeLa cell line
a.) 50 μL of 30% trichloroacetic acid was added.
b.) The mixture was reacted in a constant temperature water tank at 52° C. for 30 minutes.
c.) The above mixture was centrifuge at 12,000 g for 10 minutes at room temperature.
d.) 100 μL of the supernatant was mixed with 100 μL of Ehrlich reagent.
e.) the absorbance was measured at 480 nm using an M5 microplate reader.
The software Graphpad Prism 5 was used with the calculation formula of log(inhibitor) vs. normalized response to perform IC50 curve fitting and the IC50 value was calculated.

[2] = Pharmacokinetic evaluation in SD rats after oral administration by single gavage; type: in vivo; conditions: rat, PO 75 mg/kg, plasma; for half-life: read-out: t½ (converted)
Method: 1. Experimental animals: 100 (half male and half female) SPF grade SD rats were purchased from Shanghai Cypre-Bikai Experimental Animal Co., Ltd. Among them, 72 medically qualified and healthy SD rats without abnormality (half male and half female) were used for the study. 2. Animal Administration
72 SD rats (half male and half female) were tested according to the following table. The drug samples were stirred at least 10 minutes before administration.
Blood samples were obtained through the jugular vein puncture, and each sample was collected for about 0.25 mL and added with heparin sodium for anticoagulation. The blood sampling was performed at time points as follows:
for oral administration group, before administration, 0.25 h, 0.5 h, 1 h, 2 h, 4 h, 6 h, 8 h, 24 h after administration.
After collection, the blood samples were placed on ice and the plasma was separated by centrifugation (centrifugation conditions: 8000 rpm, 6 minutes, 2-8° C.). The collected plasma was stored at −80° C. before analysis. Plasma samples were analyzed by the analysis department of the experimental institution using LC-MS/MS for the content of the test compound in the rat plasma. The LLOQ of the detection substance was 1 ng/mL.
According to the blood plasma concentration data of the drugs, the pharmacokinetic calculation software WinNonlin5.2 non-compartmental model was used to calculate the pharmacokinetic parameters AUC0-t, Cmax, Tmax, T1/2 d and other parameters of the test samples and their average value and standard deviation.
When pharmacokinetic parameters were calculated for samples with lower concentration than the lower limit of quantification, samples taken before the curve reached Cmax should be calculated with zero value, and samples taken after the curve reached Cmax should be calculated with non-quantitative (BLQ).
The main pharmacokinetic parameters of compounds in SD rats plasma after oral administration by single gavage

IDO1 enzyme, sequence (P14902 whole entry, species assumed): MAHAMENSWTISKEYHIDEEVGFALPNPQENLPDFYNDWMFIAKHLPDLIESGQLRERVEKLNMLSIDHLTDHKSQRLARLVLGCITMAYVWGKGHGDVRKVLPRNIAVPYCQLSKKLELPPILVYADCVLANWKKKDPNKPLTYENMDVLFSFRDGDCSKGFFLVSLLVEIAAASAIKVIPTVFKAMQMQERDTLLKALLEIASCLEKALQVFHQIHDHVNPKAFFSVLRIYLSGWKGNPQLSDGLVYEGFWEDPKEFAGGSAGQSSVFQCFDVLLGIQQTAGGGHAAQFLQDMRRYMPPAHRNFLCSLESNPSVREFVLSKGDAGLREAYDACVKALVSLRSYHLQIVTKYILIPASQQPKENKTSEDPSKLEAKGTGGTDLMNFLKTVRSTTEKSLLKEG
IDO protease in highly expressed HeLa cells, sequence (P14902 whole entry): as the sequence (P14902 whole entry, species assumed) above

IC50 (IDO1 enzyme): 0.113 µM
Structure (SMILES): O/N=C(\Nc1ccc(F)c(C(F)(F)F)c1)c1nonc1NOCCc1cccs1 [Compound I-7]

IC50 (IDO1 enzyme): 0.094 µM
Structure (SMILES): Cc1ccc(CCONc2nonc2/C(=N/O)Nc2ccc(F)c(Br)c2)cc1 [Compound I-8]

IC50 (IDO1 enzyme): 0.085 µM
Structure (SMILES): O=C(NCCONc1nonc1/C(=N/O)Nc1ccc(F)c(C(F)(F)F)c1)c1ccc(F)cc1 [Compound I-9]

IC50 (IDO1 enzyme): 0.124 µM
Structure (SMILES): CS(=O)(=O)NCCONc1nonc1/C(=N/O)Nc1ccc(F)c(F)c1 [Compound I-13]

IC50 (IDO1 enzyme): 0.064 µM
Structure (SMILES): COC(=O)C(CCONc1nonc1/C(=N/O)Nc1ccc(F)c(F)c1)NS(N)(=O)=O (stereo not drawn) [Compound I-22]

IC50 (IDO1 enzyme): 0.042 µM
Structure (SMILES): NS(=O)(=O)NC1CCC(ONc2nonc2/C(=N/O)Nc2ccc(F)c(F)c2)CC1 (stereo not drawn) [Compound I-31]

IC50 (IDO1 enzyme): 0.094 µM
Structure (SMILES): O/N=C(\Nc1ccc(F)c(F)c1)c1nonc1NOC1CCC(O)CC1 (stereo not drawn) [Compound I-35]

IC50 (IDO1 enzyme): 0.142 µM
Structure (SMILES): O/N=C(\Nc1ccc(F)c(F)c1)c1nonc1NOC1CCCCO1 (stereo not drawn) [Compound I-39]

AUC(0-inf) ([2]; female SD rats): 7.54 µg·h/mL
Cmax ([2]; female SD rats): 4.24 µg/mL
Tmax ([2]; female SD rats): 1 h
half-life ([2]; female SD rats): 1.45 h
AUC(0-inf) ([2]; male SD rats): 8.25 µg·h/mL
Cmax ([2]; male SD rats): 4.76 µg/mL
Tmax ([2]; male SD rats): 1 h
half-life ([2]; male SD rats): 1.67 h
Structure (SMILES): O=C(NCCONc1nonc1/C(=N/O)Nc1ccc(F)c(Br)c1)Nc1cc(F)cc(F)c1 [Compound I-40]

IC50 (IDO1 enzyme): 0.066 µM
Structure (SMILES): O=C1NC(=O)C2(CCC(ONc3nonc3/C(=N/O)Nc3ccc(F)c(F)c3)CC2)N1 (stereo not drawn) [Compound I-49]

IC50 (IDO1 enzyme): 0.028 µM
IC50 [1]: 0.021 µM
Structure (SMILES): O=C(CCC1CCC(ONc2nonc2/C(=N/O)Nc2ccc(F)c(F)c2)CC1)Nc1ccc(F)cc1 (stereo not drawn) [Compound I-50]

IC50 (IDO1 enzyme): 0.083 µM
Structure (SMILES): COC(=O)CSNc1nonc1/C(=N/O)Nc1ccc(F)cc1 [Compound I-51]

The next lines start with the compound.

Structure (SMILES): Nc1ncc(C(=O)NCCONc2nonc2/C(=N/O)Nc2ccc(F)c(Cl)c2)s1 [Compound I-10]
IC50 (IDO1 enzyme): 0.09 µM

Structure (SMILES): OCCONc1nonc1/C(=N/O)Nc1ccc(F)c(Br)c1 [Compound I-14]
IC50 (IDO1 enzyme): 0.081 µM

Structure (SMILES): OCCCONc1nonc1/C(=N/O)Nc1ccc(F)c(Cl)c1 [Compound I-15]
IC50 (IDO1 enzyme): 0.093 µM

Structure (SMILES): NC(CCONc1nonc1/C(=N/O)Nc1ccc(F)c(Br)c1)C(=O)O (stereo not drawn) [Compound I-16]
IC50 (IDO1 enzyme): 0.042 µM
IC50 [1]: 0.035 µM

Structure (SMILES): O=C(O)CCCONc1nonc1/C(=N/O)Nc1ccc(F)c(Br)c1 [Compound I-18]
IC50 (IDO1 enzyme): 0.183 µM

Structure (SMILES): NS(=O)(=O)NC1(CONc2nonc2/C(=N/O)Nc2ccc(F)c(Br)c2)CC1 [Compound I-20]
IC50 (IDO1 enzyme): 0.018 µM
IC50 [1]: 0.008 µM
AUC(0-inf) ([2]; female SD rats): 1.99 µg·h/mL
Cmax ([2]; female SD rats): 3.33 µg/mL
Tmax ([2]; female SD rats): 0.5 h
half-life ([2]; female SD rats): 1.42 h
AUC(0-inf) ([2]; male SD rats): 2.39 µg·h/mL
Cmax ([2]; male SD rats): 4.24 µg/mL
Tmax ([2]; male SD rats): 1 h
half-life ([2]; male SD rats): 1.98 h

Structure (SMILES): NS(=O)(=O)NC(CO)CONc1nonc1/C(=N/O)Nc1ccc(F)cc1 (stereo not drawn) [Compound I-23]
IC50 (IDO1 enzyme): 0.036 µM
IC50 [1]: 0.038 µM

Structure (SMILES): NS(=O)(=O)NCCONc1nonc1/C(=N/O)Nc1ccc(F)c(Br)c1 [Compound I-24]
IC50 (IDO1 enzyme): 0.008 µM
IC50 [1]: 0.005 µM
AUC(0-inf) ([2]; female SD rats): 18.7 µg·h/mL
Cmax ([2]; female SD rats): 7.24 µg/mL
Tmax ([2]; female SD rats): 1 h
half-life ([2]; female SD rats): 2.34 h
AUC(0-inf) ([2]; male SD rats): 20.7 µg·h/mL
Cmax ([2]; male SD rats): 8.76 µg/mL
Tmax ([2]; male SD rats): 1 h
half-life ([2]; male SD rats): 2.12 h

Structure (SMILES): NS(=O)(=O)NCCONc1nonc1/C(=N/O)NCc1ccccc1 [Compound I-25]
IC50 (IDO1 enzyme): 0.068 µM

Structure (SMILES): NS(=O)(=O)NCCCCONc1nonc1/C(=N/O)Nc1ccc(F)c(Br)c1 [Compound I-26]
IC50 (IDO1 enzyme): 0.092 µM

Structure (SMILES): CC(N/C(=N\O)c1nonc1NOCCNS(N)(=O)=O)c1ccccc1 (stereo not drawn) [Compound I-27]
IC50 (IDO1 enzyme): 0.042 µM
IC50 [1]: 0.026 µM

Structure (SMILES): O/N=C(\Nc1ccc(F)c(F)c1)c1nonc1N1CCCCO1 [Compound I-38]
IC50 (IDO1 enzyme): 0.078 µM

Structure (SMILES): O/N=C(\Nc1ccc(F)c(Br)c1)c1nonc1NOCCONc1nonc1/C(=N/O)Nc1ccc(F)c(Br)c1 [Compound I-43]
IC50 (IDO1 enzyme): 0.035 µM
IC50 [1]: 0.038 µM

Structure (SMILES): NS(=O)(=O)NOCCONc1nonc1/C(=N/O)Nc1ccc(F)c(Br)c1 [Compound I-44]
IC50 (IDO1 enzyme): 0.078 µM

Structure (SMILES): NS(=O)(=O)NCCNc1nonc1C(=NO)Nc1ccc(F)c(Br)c1 [INCB024360, Epacadostat, reference compound]
AUC(0-inf) ([2]; female SD rats): 11.3 µg·h/mL
Cmax ([2]; female SD rats): 3.41 µg/mL
half-life ([2]; female SD rats): 2.51 h
AUC(0-inf) ([2]; male SD rats): 12.2 µg·h/mL
Cmax ([2]; male SD rats): 3.94 µg/mL
Tmax ([2]; male SD rats): 0.5 h
half-life ([2]; male SD rats): 2.24 h
